Reference: US8623832B2, “Peptide compositions that bind TLR-4” (The Board of Regents of the University of Oklahoma, priority 2011, dated 2014)
Where no end group is shown, it is not given here.

Tests used:
DSS-colitis = experiment: Dextran sodium sulfate (DSS)-colitis model in mice; type: in vivo; conditions: 3% DSS 7 days, SPA4 100 μg daily intraperitoneal
Method: SPA4 peptide reduced serum TNF-α and inflammation in Dextran sodium sulfate (DSS)-colitis model in mice (FIG. 18). SPA4 peptide was also evaluated in the mouse model of DSS-colitis. DSS (3% in drinking water) was given to the mice for a period of 7 days. In the treatment group, mice were simultaneously injected with SPA4 peptide (100 μg daily via intraperitoneal route). After 2 days of recovery period, the mice were weighed, colons were macroscopically examined, and blood samples were harvested. The TNF-α levels were measured by ELISA.

[1] = system: NF-κB pathway molecules (IKBα, phosphorylated IKBα, p65, phosphorylated p65, RelB, COX-2); experiment: Expression of NF-κB pathway molecules in SW480 cell lysates by immunoblotting; type: cell-based, human
Method: Expression of NF-κB pathway molecules by immunoblotting: The expression of NF-κB pathway molecules (inhibitor kappa-Bα: IKBα, phosphorylated IKBα, p65, phosphorylated p65, RelB and COX-2) in SW480 cell-lysates treated with LPS±SPA4 peptide was studied by immunoblotting. For the immunoblotting, 10 μg of total cell-lysate proteins were fractionated on Novex 4-20% Tris-glycine gradient SDS-PAGE gel (Invitrogen, Carlsbad, Calif.) by electrophoresis. Separated proteins were electro-transferred onto a nitrocellulose membrane using iBlot gel transfer device (Invitrogen, Carlsbad, Calif.). The non-specific sites were blocked by incubating the membrane with 7% skimmed milk in Tris-buffered saline with 0.4% TWEEN®-20 (TBST) for 1 hour at room temperature. The blocked membranes were incubated overnight at 4° C. with 1:1000 diluted anti-human antibodies against NF-κB canonical pathway molecules: phosphorylated inhibitor kappa-Bα (IKBα), total-IKBα, p65, RelB (Cell Signaling Technology, Inc., Danvers, Mass.), phosphorylated p65 (Santacruz Biotech, Inc., Santa Cruz, Calif.) and cyclooxygenase-2 (COX-2; Santacruz Biotech, Inc., Santa Cruz, Calif.). The membranes were washed with TBST and incubated at room temperature for 45 minutes with 1:3500 diluted horse-radish peroxidase (HRP)-conjugated-secondary antibody (Sigma-Aldrich, St. Louis, Mo.). The immunoreactive bands were detected by Super Signal West Femto detection reagent (Thermo Fisher Scientific, Barrington, Ill.). In order to ensure equal protein loading in the wells, the membranes were stripped of probing antibodies at 60° C. for 45 minutes using a stripping solution containing 10% SDS, 0.5 M Tris and […] (35 μl/ml), and re-probed with anti-actin antibody (Sigma-Aldrich, MO; 1:1000 in TBST). The immunoblots were imaged using the Ultraquant image acquisition program (UltraLum Inc., Claremont, Calif.). The densitometric readings were obtained for immunoreactive bands with Image J 1.42 q program (NIH, USA). Finally, arbitrary densitometric values for proteins of interest were normalized with those of β-actin.

[2] = system: primary adult baboon lung DCs and fetal baboon lung DC-precursor cells; experiment: Phagocytosis of pHrodo-labeled E. coli bioparticles by primary baboon lung DCs / fetal DC-precursor cells; type: cell-based
Method: Freshly collected lobe of the lung or whole lung samples of adult and fetal baboons were transported on ice in RPMI 1640 medium containing 2 mM glutamine, 1 mM HEPES, 10 μg/ml gentamicin, 100 U/ml penicillin, 100 μg/ml streptomycin and 10% FBS. After a mild mechanical disruption, the single cell suspension was seeded in a tissue culture flask (Nalge-Nunc International Corp, NY) at a density of 30-50×10^6 leukocytes/175 cm^2 flask in RPMI 1640 medium containing 2 mM glutamine, 1 mM HEPES, 10 μg/ml gentamicin, 100 U/ml penicillin, 100 μg/ml streptomycin and 10% FBS. The light-density DC-populations were harvested using OptiPrep cell-separation solution (density 1.32 g/ml, Accurate Chemicals, NY) (Awasthi and Cooper, 2006; Awasthi et al., 2009). The immunophenotype and basic characteristics of the lung DC-population isolated from fetal and adult baboons have been described earlier (Awasthi et al., 2009). Here, first the immunophenotype of KG-1-derived DCs and fetal baboon lung DC-precursors or adult baboon lung DCs were compared by flow cytometry. Briefly, cells were suspended in Dulbecco's phosphate buffered saline (DPBS) containing 1% FBS and 0.09% sodium azide and incubated with fluorochrome-conjugated antibodies to HLA-DP, DQ, DR, CD11c, CD40, CD80, CD86 (typical DC-markers) as described earlier.
After confirming that the fluorescence is of phagocytosed bioparticles, comprehensive experiments were performed in presence and absence of effector molecules (SP-A and TLR4-MD2 proteins). […] The fluorescence readings were taken at 550 nm excitation and 600 nm emission wavelengths using SpectraMax M2 spectrofluorometer (Molecular Devices, CA).
The phagocytosis index was calculated by subtracting the average fluorescence intensity of the reaction with bioparticles alone from the control (basal without any effector molecules) and experimental wells. Finally, the percent effect was calculated using the following formula: % effect=(Net experimental phagocytosis/Net basal phagocytosis)×100%

| Substance | colitis symptoms (distension and shortening of the colon) (DSS-colitis) | DSS-induced serum levels of circulating TNF-α (DSS-colitis; ELISA) | body weight (DSS-colitis; compared to DSS-colitis mice) | colon length (DSS-colitis; compared to DSS-colitis mice) | expression of RelB ([1]; LPS-challenged) | expression of phosphorylated IKBα ([1]; LPS-challenged) | expression of COX-2, short-term treatment ([1]; LPS-challenged, 5 hours model) | expression of phosphorylated p65, short-term treatment ([1]; LPS-challenged, 5 hours model) | expression of total IKBα, short-term treatment ([1]; LPS-challenged, 5 hours model) | expression of COX-2, long-term treatment ([1]; LPS-challenged, 9 hours model) | expression of phosphorylated p65, long-term treatment ([1]; LPS-challenged, 9 hours model) | expression of total IKBα, long-term treatment ([1]; LPS-challenged, 9 hours model) | expression of NF-κB signaling molecules, SPA4 peptide alone ([1]; no LPS) | phagocytic uptake of E. coli ([2]; SP-A 2 μM, TLR4-MD2 0.3 μM) | phagocytic uptake of E. coli when SP-A and TLR4-MD2 proteins were added together ([2]; uptake remained increased versus basal) |
| --- | --- | --- | --- | --- | --- | --- | --- | --- | --- | --- | --- | --- | --- | --- | --- |
| GDFRYSDGTPVNYTNWYRGE [SPA4, GDFRYSDGT PVNYTNWYRGE] | reduced the colitis symptoms | completely inhibited | recovered | recovered | No effect | No effect | decrease | decrease | increase | remained low | remained low | decreased | did not affect the expression of any of the NF-κB signaling molecules studied, except for COX-2 |  |  |
| SP-A: native surfactant protein-A purified from bronchioalveolar lavage fluid of a normal healthy adult baboon (MWLCPLALTLTLMAASGAACEVKDVCVGSPGIPGTPGSHGLPGRDGRDGVKGDPGPP; listed as Papio cynocephalus) |  |  |  |  |  |  |  |  |  |  |  |  |  | increased | no additive effect |
